Results taken from patent US20110195982A1, “PREDICTIVE MARKER FOR EGFR INHIBITOR TREATMENT” (priority 2007, published 2011).

What was measured:
[1] = doses that provide the targeted effective concentration; cited from earlier work
NSCLC [2] = details: single agent, after failure of standard therapy for advanced disease, versus placebo; cited from earlier work
advanced NSCLC = experiment: open-label, predictive marker identification Phase II study of Tarceva monotherapy; format: in vivo, human
Description: The selection of this dose was based on pharmacokinetic parameters, as well as the safety and tolerability profile of this dose observed in Phase I, II and III trials in heavily pre-treated patients with advanced cancer. Drug levels seen in the plasma of patients with cancer receiving the 150 mg/day dose were consistently above the average plasma concentration of 500 ng/ml targeted for clinical efficacy.
This was an open-label, predictive marker identification Phase II study. The study was conducted in approximately 26 sites in about 12 countries. 264 patients with advanced NSCLC following failure of at least one prior chemotherapy regimen were enrolled over a 12 month period. […] Dose reductions were permitted based on tolerability to drug therapy. Clinical and laboratory parameters were assessed to evaluate disease control and toxicity. Treatment continued until disease progression, unacceptable toxicity or death. The study design is depicted in FIG. 1.
The RECIST (Uni-dimensional Tumour Measurement) criteria were used to evaluate response. These criteria can be found under the following link: http://www.eortc.be/recist/
Note that: To be assigned a status of CR or PR, changes in tumour measurements must be confirmed by repeated assessments at least 4 weeks apart at any time during the treatment period.
In the case of SD, follow-up measurements must have met the SD criteria at least once after study entry at a minimum interval of 6 weeks.
In the case of maintained SD, follow-up measurements must have met the SD criteria at least once after study entry with maintenance duration of at least 12 weeks.
A regular status check every 3 months was performed either by a patient's visit to the clinic or by telephone. All deaths were recorded. At the end of the study a definitive confirmation of survival was required for each patient.

[3] = patients with cancer, 150 mg/day; cited from earlier work
NSCLC [4] = details: second line after cisplatin-based first-line regimens, ECOG 0, 1 or 2, versus best supportive care; cited from earlier work
NSCLC [5] = details: second line therapy of NSCLC; cited from earlier work
[6] = 75 patients with qRT-PCR results
[7] = 102 patients with microarray data
[8] = all 264 enrolled patients, 150 mg/day oral
[9] = of the 102 patients with microarray data

Which safety and tolerability [1] does the source give for C#Cc1cccc(Nc2ncnc3cc(OCCOC)c(OCCOC)cc23)c1 [Tarceva, erlotinib] here?
Its safety and tolerability is “safe and generally well tolerated”.

And the “survival of NSCLC patients” value (NSCLC [2])?
The value was “significantly prolongs and improves the survival”.

What about the PD (advanced NSCLC; [6]) of the same compound?
The PD was 52%.

What about the “partial response (PR)” value (advanced NSCLC; [6]) of the same compound?
The value was 5%.

And the “Best Response SD, n (%)” value (advanced NSCLC; [7])?
Its value is 31 (30.4%).

What about the “Clinical Benefit YES, n (%)” value (advanced NSCLC; [7]) of the same compound?
The value was 21 (20.6%).

What about the “clinical benefit (objective response or stable disease for 12 weeks or more)” value (advanced NSCLC; [8]) of the same compound?
The value was 31.4%.

What about the median overall survival (advanced NSCLC; [8]) of the same compound?
The median overall survival was 7.6 (CI 7-9) months.

What about the median progression-free survival (advanced NSCLC; [8]) of the same compound?
The median progression-free survival was 11.3 (CI 8-12) weeks.

What about the “patients achieving an objective response” value (advanced NSCLC; all 264 enrolled patients, 150 mg/day oral, RECIST) of the same compound?
The value was 13.6%.

And the “number of partial responders (PR)” value (advanced NSCLC; [9])?
Its value is 6.

What about the “number of patients with PD” value (advanced NSCLC; [9]) of the same compound?
Its value is 49.

What about the “number of patients with SD” value (advanced NSCLC; [9]) of the same compound?
Its value is 31.

And the “patients achieving a CR” value (advanced NSCLC; [9])?
The value was “no patients achieving a CR”.

What about the “drug levels in plasma” value [3] of the same compound?
Its value is over 500 ng/mL.

Which survival (NSCLC [4]) does the source give for CC(=O)O[C@@]12CO[C@@H]1C[C@H](O)[C@@]1(C)C(=O)[C@H](O)C3=C(C)[C@@H](OC(=O)[C@H](O)[C@@H](NC(=O)OC(C)(C)C)c4ccccc4)C[C@@](O)([C@@H](OC(=O)c4ccccc4)[C@H]21)C3(C)C [docetaxel] here?
Its survival is “improved survival”.

What does the source list for Nc1nc2[nH]cc(CCc3ccc(C(=O)N[C@@H](CCC(=O)O)C(=O)O)cc3)c2c(=O)[nH]1 [pemetrexed]?
efficacy compared with docetaxel (NSCLC [5]): clinically equivalent efficacy; side effects compared with docetaxel (NSCLC [5]): significantly fewer side effects
